Patent US20050019746A1, “Apoptosis-related kinase/GPCRs” (EiRx Therapeutics Limited, priority 2003, published 2005)

Experiments:
DU145, PC3, HCT116 cells = test: Annexin V apoptosis assay (Guava Nexin); format: cell-based, human; settings: DU145, HCT116 or PC3, siRNA 50 nM, relative to mock transfected, FIG. 34
Description: Apoptosis or programmed cell death is an important and active regulatory pathway of cell growth and proliferation. Cells respond to specific induction signals by initiating intracellular processes that result in characteristic physiological changes. Among these are externalisation of phosphotidylserine (PS) to the cell surface, cleavage and degradation of specific cellular proteins, compaction and fragmentation of nuclear chromatin and loss of membrane integrity (in late stages). Annexin V is a calcium-dependant phospholipid binding protein with a high affinity for phosphotidyl serine (PS), a membrane component normally localised to the internal face of the cell membrane. Early in the apoptotic pathway molecules of PS are translocated to the outer surface of the cell membrane where Annexin V can readily bind to them.
Annexin V assays are performed using the Guava Nexin Assay, which utilises Annexin V-PE to detect PS on the external membrane of apoptotic cells. The cell impermeant dye 7-AAD is included in the assay as an indicator of membrane structural integrity as it is excluded from live and early apoptotic cells but permeates late stage apoptotic and dead cells. Assays are performed using a Guava Technologies Personal Cytometer and Guava Nexin Kit (catalogue no. 4500-0010, Guava Technologies Inc) using a modification of the manufacturer's protocol, where cells are transfected with siRNA in 24-well plates and assays performed at 24, 48 and 72 hours post-transfection.
Cells (DU145, PC3 & HCT116) are plated at a density of 20000 cells/well in 500 μl medium in 24-well plates and incubated overnight at 37° C. in a humidified atmosphere containing 5% CO2. […]
The 500 μl of media is decanted from the cells and combined with 150 μl of PBS used to wash them. […] Then, 450 μl 1× Nexin Buffer is added to the cells and the cell population analysed using the Guava Personal Cytometer following the manufacturer's instructions. […] The total number of early and late apoptotic cells is measured and the relative number of apoptotic cells calculated. […]

A549 cells = test: Anchorage Independence/Soft Agar Assay, A549; format: cell-based, human; parameters: PERCENTAGE SURVIVAL RELATIVE TO MS, A549, n = 2: tested at 2 µg; settings: soft agar; for PERCENTAGE SURVIVAL RELATIVE TO MS, A549, n = 1: experiment n = 1; for PERCENTAGE SURVIVAL RELATIVE TO MS, A549, n = 2: experiment n = 2
Outline: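 Cells were transfected for 4 h with 2 μg siRNA against target genes, then seeded at 5×10^4 cells/well in 0.05% agar/medium and grown 12/14 days at 37 °C, 5% CO2. Crystal violet-stained colonies were counted at 4× and morphology assessed; survival expressed relative to missense siRNA control.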

With “siRNA ROCK: siRNA duplex, sense UACAUGCCUGGUGGAGAUCtt, antisense GAUCUCCACCAGGCAUGUAtt; same in Tables 9 and 11 (sense UACAUGCCUGGUGGAGAUCTT; antisense GAUCUCCACCAGGCAUGUATT; chemistry not given here)” the “apoptosis by Annexin V staining” value (DU145, PC3, HCT116 cells) was “undergo apoptosis”.

In the case of “siRNA Survivin: positive control siRNA, sense GAACUGGCCCUUCUUGGAGtt, antisense CUCCAAGAAGGGCCAGUUCtt (sense GAACUGGCCCUUCUUGGAGTT; antisense CUCCAAGAAGGGCCAGUUCTT; chemistry not given here) [reference compound]”, the “PERCENTAGE SURVIVAL RELATIVE TO MS, A549, n = 1” value (A549 cells) is reported as 53% and the “PERCENTAGE SURVIVAL RELATIVE TO MS, A549, n = 2” value (A549 cells) is reported as 17.7%.

In the case of “siRNA NTKL: siRNA duplex, sense UGUGGAGCUGAUGAAGCACtt, antisense GUGCUUCAUCAGCUCCACAtt; same in Tables 9 and 11 (sense UGUGGAGCUGAUGAAGCACTT; antisense GUGCUUCAUCAGCUCCACATT; chemistry not given here)”, the “apoptosis by Annexin V staining” value (DU145, PC3, HCT116 cells) is reported as “undergo apoptosis”.

With “siRNA PSKH1: sense GAACCUGCACCGCUCCAUAtt, antisense UAUGGAGCGGUGCAGGUUCtt (sense GAACCUGCACCGCUCCAUATT; antisense UAUGGAGCGGUGCAGGUUCTT; chemistry not given here)” the “PERCENTAGE SURVIVAL RELATIVE TO MS, A549, n = 1” value (A549 cells) was 65.8% and the “PERCENTAGE SURVIVAL RELATIVE TO MS, A549, n = 2” value (A549 cells) was 32.5%.

“siRNA MKNK: sense UACAUGGCCCCUGAGGUAGtt, antisense CUACCUCAGGGGCCAUGUAtt (sense UACAUGGCCCCUGAGGUAGTT; antisense CUACCUCAGGGGCCAUGUATT; chemistry not given here)” was tested, and the “PERCENTAGE SURVIVAL RELATIVE TO MS, A549, n = 1” value (A549 cells) was 85% and the “PERCENTAGE SURVIVAL RELATIVE TO MS, A549, n = 2” value (A549 cells) was 21.6%.

With “siRNA EKI: siRNA duplex, sense GCACUGGAUCCAAAGCAUGtt, antisense CAUGCUUUGGAUCCAGUGCtt; same in Tables 9 and 11 (sense GCACUGGAUCCAAAGCAUGTT; antisense CAUGCUUUGGAUCCAGUGCTT; chemistry not given here)” the “apoptosis by Annexin V staining” value (DU145, PC3, HCT116 cells) was “undergo apoptosis”.

In the case of “siRNA MPSK1: sense GGGUUAUGCCCACAGAGACtt, antisense GUCUCUGUGGGCAUAACCCtt (sense GGGUUAUGCCCACAGAGACTT; antisense GUCUCUGUGGGCAUAACCCTT; chemistry not given here)”, the “PERCENTAGE SURVIVAL RELATIVE TO MS, A549, n = 1” value (A549 cells) is reported as 59.4% and the “PERCENTAGE SURVIVAL RELATIVE TO MS, A549, n = 2” value (A549 cells) is reported as 19.5%.
